From patent US20090118249A1, “DHEAS INHALATION COMPOSITIONS” (priority 2007, published 2009)

Assay: Solubility in aqueous solution
Format: physicochemical
Description: In some cases, the DHEAS will associate with or form a complex with the divalent cation which is less soluble than the DHEAS sodium salt.

Dehydroepiandrosterone sulfate [DHEAS-Na]
solubility: about 17 mg/ml
